Results published in patent US12606572B2, “Substituted heterocycles and uses thereof” (Kumquat Biosciences Inc., priority 2023, dated 2026).

Legend:
[1] = target: T1, KRAS WT (Homo sapiens, UniProt P01116); test: HTRF assay, interaction of GST-tagged K-Ras with His-tagged hSOS1 (KRAS wildtype); type: biochemical; details: <500 nM, read-out: Inhibition of KRAS WT (IC50)
T1 construct: made in house; host or cells: E. coli BL21 (DE3)
Text: (§1) This assay can be also used to assess a selective inhibition or reduction of signaling output of a mutant Ras protein relative to a wildtype, or relative to a different mutant Ras protein. For example, the equilibrium interaction of wildtype KRAS or K-Ras mutant (e.g., wildtype or a mutant thereof) with SOS1 (e.g., hSOS1) can be assessed as a proxy or an indication for the ability of a subject compound to bind and inhibit Ras protein. The HTRF assay detects from (i) a fluorescence resonance energy transfer (FRET) donor (e.g., antiGST-Europium) that is bound to GST-tagged K-Ras mutant to (ii) a FRET acceptor (e.g., anti-6His-XL665) bound to a His-tagged hSOS1.
(§2) The assay buffer can contain ˜5 mM HEPES pH 7.4, ˜150 mM NaCl, ˜1 mM DTT, 0.05% BSA and 0.0025% (v/v) Igepal. A Ras working solution is prepared in an assay buffer containing typically a suitable amount of the protein construct (e.g., GST-tagged K-Ras mutant) and the FRET donor (e.g., antiGST-Eu(K) from Cisbio, France). A SOS1 working solution is prepared in an assay buffer containing suitable amount of the protein construct (e.g., His-hSOS1) and the FRET acceptor (e.g., anti-6His-XL665 from Cisbio, France). A suitable amount of the protein construct will depend on the range of activity or range of IC50 values being detected or under investigation. For detecting an IC50 within a range of 500 nM, the protein constructs of the same range of molarity can be utilized.
(§3) A fixed volume of DMSO with or without test compound is transferred into a 384-well plate. Ras working solution is added to all wells of the test plate. SOS1 working solution is added to all wells except for those that are subsequently filled with inhibitor control solution. Upon incubation for about 10 minutes or longer, the fluorescence is measured with a M1000Pro plate reader (Tecan) using HTRF detection (excitation 337 nm, emission 1: 620 nm, emission 2: 665 nm). Compounds are tested in duplicate at different concentrations (for example, 10 μM, 2.5 μM, 0.63 μM, 0.16 μM, 0.04 μM, 0.01 μM test compound). The ratiometric data (i.e., emission 2 divided by emission 1) is used to calculate IC50 values against Ras using GraphPad Prism (GraphPad software). Signaling output measured in terms of IC50 values can be obtained and a ratio of IC50 against one mutant relative to another mutant can be calculated. For instance, a selective reduction of K-Ras G12S signaling output can be evidenced by a ratio greater than one. In particular, a selective reduction of K-Ras G12S signaling relative to K-Ras WT signaling is evidenced if the ratio of IC50 (against K-Ras WT) to IC50 (against K-Ras G12S) is greater than 1.

[2] = target: T2, KRAS G12S (Homo sapiens, UniProt P01116, G12S); test: HTRF assay, interaction of GST-tagged K-Ras with His-tagged hSOS1 (KRAS G12S); type: biochemical; details: <500 nM, read-out: Inhibition of KRAS G12S (IC50)
T2 construct: made in house; host or cells: E. coli BL21 (DE3)
Text: as §1, §2, §3

T1 sequence (P01116 1-188 isoform P01116-2): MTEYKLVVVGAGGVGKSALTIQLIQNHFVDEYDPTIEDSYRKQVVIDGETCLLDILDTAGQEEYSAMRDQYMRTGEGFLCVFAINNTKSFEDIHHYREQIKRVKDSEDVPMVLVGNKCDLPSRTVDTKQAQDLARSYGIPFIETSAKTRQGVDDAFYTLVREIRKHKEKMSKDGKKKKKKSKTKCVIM
T2 sequence (P01116 1-188 isoform P01116-2 G12S): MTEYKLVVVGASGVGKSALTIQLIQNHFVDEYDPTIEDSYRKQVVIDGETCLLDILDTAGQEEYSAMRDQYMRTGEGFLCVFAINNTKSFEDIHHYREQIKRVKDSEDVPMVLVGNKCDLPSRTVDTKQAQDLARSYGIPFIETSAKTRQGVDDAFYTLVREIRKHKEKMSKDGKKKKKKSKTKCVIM

IC50 [1] [µM]	IC50 [2] [µM]	Compound
< 0.5	< 0.5	C[C@@H]1[C@H](N2C[C@H](C)Oc3nc(-c4ccc(F)c5sc(N)c(C#N)c45)c(F)c4nc(OC[C@@]56CCCN5C[C@H](F)C6)nc2c34)CCN1C(=O)n1cnc(Cl)n1 [Compound 461, 2-amino-4-((S)-10-((2R,3R)-1-(3-chloro-1H-1,2,4-triazole-1-carbonyl)-2-methylpyrrolidin-3-yl)-4-fluoro-2-(((2R,7aS)-2-fluorotetrahydro-1H-pyrrolizin-7a(5H)-yl)methoxy)-8-methyl-9,10-dihydro-8H-7-oxa-1,3,6,10-tetraazacyclohepta[de]naphthalen-5-yl)-7-fluorobenzo[b]thiophene-3-carbonitrile]
< 0.5	< 0.5	CC1([C@@H]2[C@H](CN3CCCOc4c(Cl)c(-c5ccc(F)c6sc(N)c(C#N)c56)c(F)c5nc(OC[C@@]67CCCN6C[C@H](F)C7)nc3c45)CN2C(=O)n2ccnc2)CC1 [Compound 494, 4-(4-(((2S,3R)-1-(1H-imidazole-1-carbonyl)-2-(1-methylcyclopropyl)azetidin-3-yl)methyl)-9-chloro-11-fluoro-2-(((2R,7aS)-2-fluorotetrahydro-1H-pyrrolizin-7a(5H)-yl)methoxy)-4,5,6,7-tetrahydro-[1,5]oxazocino [4,3,2-de]quinazolin-10-yl)-2-amino-7-fluorobenzo[b] thiophene-3-carbonitrile]
< 0.5	< 0.5	C=CC(=O)N1CC(CN2CCOc3c(Cl)c(-c4ccc(F)c5sc(N)c(C#N)c45)c(F)c4nc(OC[C@@]56CCCN5C[C@H](F)C6)nc2c34)C1 [Compound 466, 4-(4-((1-acryloylazetidin-3-yl)methyl)-8-chloro-10-fluoro-2-(((2R,7aS)-2-fluorotetrahydro-1H-pyrrolizin-7a(5H)-yl)methoxy)-5,6-dihydro-4H-[1,4]oxazepino[5,6,7-de]quinazolin-9-yl)-2-amino-7-fluorobenzo[b]thiophene-3-carbonitrile]
< 0.5	< 0.5	Cc1cn(C(=O)N2CC[C@@H](N3C[C@H](C)Oc4c(Cl)c(-c5ccc(F)c6sc(N)c(C#N)c56)c(F)c5nc(OC[C@@]67CCCN6C[C@H](F)C7)nc3c45)[C@H]2C)c(C)n1 [Compound 464, 2-amino-4-((6S)-8-chloro-4-((2R,3R)-1-(2,4-dimethyl-1H-imidazole-1-carbonyl)-2-methylpyrrolidin-3-yl)-10-fluoro-2-(((2R,7aS)-2-fluorotetrahydro-1H-pyrrolizin-7a(5H)-yl)methoxy)-6-methyl-5,6-dihydro-4H-[1,4]oxazepino[5,6,7-de]quinazolin-9-yl)-7-fluorobenzo[b] thiophene-3-carbonitrile]
< 0.5	< 0.5	Cc1cn(C(=O)N2CC[C@@H](N3CCCc4nc(-c5ccc(F)c6sc(N)c(C#N)c56)c(F)c5nc(OC[C@@]67CCCN6C[C@H](F)C7)nc3c45)[C@H]2C)c(C)n1 [Compound 409, 2-amino-4-(10-((2R,3R)-1-(2,4-dimethyl-1H-imidazole-1-carbonyl)-2-methylpyrrolidin-3-yl)-4-fluoro-2-(((2R,7aS)-2-fluorotetrahydro-1H-pyrrolizin-7a (5H)-yl)methoxy)-7,8,9,10-tetrahydro-1,3,6,10-tetraazacyclohepta[de]naphthalen-5-yl)-7-fluorobenzo[b]thiophene-3-carbonitrile]
< 0.5	< 0.5	C[C@@H]1C(CN2CCOc3c(Cl)c(-c4ccc(F)c5sc(N)c(C#N)c45)c(F)c4nc(OC[C@@]56CCCN5C[C@H](F)C6)nc2c34)CN1C(=O)n1ccnc1 (stereo partly drawn) [Compound 413, 4-(4-(((2R)-1-(1H-imidazole-1-carbonyl)-2-methylazetidin-3-yl)methyl)-8-chloro-10-fluoro-2-(((2R,7aS)-2-fluorotetrahydro-1H-pyrrolizin-7a(5H)-yl)methoxy)-5,6-dihydro-4H-[1,4]oxazepino[5,6,7-de]quinazolin-9-yl)-2-amino-7-fluorobenzo[b]thiophene-3-carbonitrile]
< 0.5	< 0.5	C[C@H](O)[C@H]1COc2c(Cl)c(-c3ccc(F)c4sc(N)c(C#N)c34)c(F)c3nc(OC[C@@]45CCCN4C[C@H](F)C5)nc(c23)N1CCN(C)C(=O)n1ccnc1 [Compound 449, N-(2-((5R)-9-(2-amino-3-cyano-7-fluorobenzo[b]thiophen-4-yl)-8-chloro-10-fluoro-2-(((2R,7aS)-2-fluorotetrahydro-1H-pyrrolizin-7a(5H)-yl)methoxy)-5-((S)-1-hydroxyethyl)-5,6-dihydro-4H-[1,4]oxazepino [5,6,7-de]quinazolin-4-yl)ethyl)-N-methyl-1H-imidazole-1-carboxamide]
< 0.5	< 0.5	Cc1cn(C(=O)N2CC[C@@H](N3C[C@H](C)Oc4nc(-c5cc(N)c(F)c(C)c5C(F)(F)F)c(F)c5nc(OC[C@@]67CCCN6C[C@H](F)C7)nc3c45)[C@H]2C)c(C)n1 [Compound 430, ((2R,3R)-3-((S)-5-(5-amino-4-fluoro-3-methyl-2-(trifluoromethyl)phenyl)-4-fluoro-2-(((2R,7aS)-2-fluorotetrahydro-1H-pyrrolizin-7a(5H)-yl)methoxy)-8-methyl-8,9-dihydro-10H-7-oxa-1,3,6,10-tetraazacyclohepta [de]naphthalen-10-yl)-2-methylpyrrolidin-1-yl)(2,4-dimethyl-1H-imidazol-1-yl)methanone]
< 0.5	< 0.5	C=C(F)C(=O)N1CC(CN2CCOc3c(Cl)c(-c4ccc(F)c5sc(N)c(C#N)c45)c(F)c4nc(OC[C@@]56CCCN5C[C@H](F)C6)nc2c34)C1 [Compound 491, 2-amino-4-(8-chloro-10-fluoro-4-((1-(2-fluoroacryloyl)azetidin-3-yl)methyl)-2-(((2R,7aS)-2-fluorotetrahydro-1H-pyrrolizin-7a(5H)-yl)methoxy)-5,6-dihydro-4H-[1,4]oxazepino[5,6,7-de]quinazolin-9-yl)-7-fluorobenzo[b]thiophene-3-carbonitrile]
< 0.5	< 0.5	C[C@H](O)[C@H]1COc2c(Cl)c(-c3ccc(F)c4sc(N)c(C#N)c34)c(F)c3nc(OC[C@@]45CCCN4C[C@H](F)C5)nc(c23)N1CC1CCN(C(=O)n2ccnc2)C1 (stereo partly drawn) [Compound 419, 4-((5R)-4-((1-(1H-imidazole-1-carbonyl)pyrrolidin-3-yl)methyl)-8-chloro-10-fluoro-2-(((2R,7aS)-2-fluorotetrahydro-1H-pyrrolizin-7a(5H)-yl)methoxy)-5-((S)-1-hydroxyethyl)-5,6-dihydro-4H-[1,4]oxazepino [5,6,7-de]quinazolin-9-yl)-2-amino-7-fluorobenzo[b] thiophene-3-carbonitrile]
< 0.5	< 0.5	CC#CC(=O)N1CC(CN2CCOc3c(Cl)c(-c4ccc(F)c5sc(N)c(C#N)c45)c(F)c4nc(OC[C@@]56CCCN5C[C@H](F)C6)nc2c34)C1 [Compound 456, 2-amino-4-(4-((1-(but-2-ynoyl)azetidin-3-yl)methyl)-8-chloro-10-fluoro-2-(((2R,7aS)-2-fluorotetrahydro-1H-pyrrolizin-7a (5H)-yl)methoxy)-5,6-dihydro-4H-[1,4]oxazepino[5,6,7-de]quinazolin-9-yl)-7-fluorobenzo[b]thiophene-3-carbonitrile]
< 0.5	< 0.5	C[C@@H]1CCOc2c(Cl)c(-c3ccc(F)c4sc(N)c(C#N)c34)c(F)c3nc(OC[C@@]45CCCN4C[C@H](F)C5)nc(c23)N1CC1CCN(C(=O)n2ccnc2)C1 (stereo partly drawn) [Compound 417, 4-((5R)-4-((1-(1H-imidazole-1-carbonyl)pyrrolidin-3-yl)methyl)-9-chloro-11-fluoro-2-(((2R, 7aS)-2-fluorotetrahydro-1H-pyrrolizin-7a(5H)-yl)methoxy)-5-methyl-4,5,6,7-tetrahydro-[1,5]oxazocino [4,3,2-de]quinazolin-10-yl)-2-amino-7-fluorobenzo [b]thiophene-3-carbonitrile]
